Measurements published in article PMC4751996 (Journal of medicinal chemistry, 2015).
Residues, ends and D or L forms follow the SMILES beside them.

How the values were obtained:
[1] = test system: MDA-MB-231 and HCT116 cell lines; experiment: Growth inhibition screen, 3 day exposure, relative DNA content; conditions: 72 h; for inhibition at 1 µM: read-out: Drug Effect (avg) (1 μM); for inhibition at 10 µM: read-out: Drug Effect (avg) (10 μM)
hRRM1 [2] = target: T1, hRRM1 (Homo sapiens, UniProt P23921); experiment: Tryptophan fluorescence quenching of hRRM1 at fixed ligand concentration; conditions: ligand 50 μM; hRRM1 0.1 mg/mL; excitation 295 nm
T1 sequence (P23921 1-792): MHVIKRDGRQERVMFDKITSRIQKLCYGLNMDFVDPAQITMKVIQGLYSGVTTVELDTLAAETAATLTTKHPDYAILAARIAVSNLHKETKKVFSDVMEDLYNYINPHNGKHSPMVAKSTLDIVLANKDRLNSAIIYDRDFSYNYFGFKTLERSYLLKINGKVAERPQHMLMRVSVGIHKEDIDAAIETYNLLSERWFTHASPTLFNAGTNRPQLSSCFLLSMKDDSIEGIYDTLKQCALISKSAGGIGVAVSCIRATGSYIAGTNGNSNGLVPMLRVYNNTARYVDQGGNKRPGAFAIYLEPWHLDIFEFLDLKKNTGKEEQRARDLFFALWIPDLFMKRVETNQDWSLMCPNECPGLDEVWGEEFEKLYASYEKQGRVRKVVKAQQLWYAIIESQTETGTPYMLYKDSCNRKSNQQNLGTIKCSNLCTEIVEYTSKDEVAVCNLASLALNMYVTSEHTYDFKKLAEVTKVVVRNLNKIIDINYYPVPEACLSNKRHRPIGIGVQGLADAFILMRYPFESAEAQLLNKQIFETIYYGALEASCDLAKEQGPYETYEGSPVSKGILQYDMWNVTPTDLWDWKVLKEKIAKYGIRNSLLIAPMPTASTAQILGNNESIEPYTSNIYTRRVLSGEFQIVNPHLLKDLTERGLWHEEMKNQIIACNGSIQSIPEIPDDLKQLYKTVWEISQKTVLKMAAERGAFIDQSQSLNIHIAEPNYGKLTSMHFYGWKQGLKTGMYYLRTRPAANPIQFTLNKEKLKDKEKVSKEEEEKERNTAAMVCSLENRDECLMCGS

hRRM1 [3] = target: T1, hRRM1; experiment: Gel filtration chromatography of hRRM1 oligomeric state; conditions: 50 μM dATP alone

Row | % Fluorescence quenching (hRRM1 [2]) | hexamer to dimer ratio based on integration of the peaks (hRRM1 [3]) | SMILES | inhibition at 1 µM [1] | inhibition at 10 µM [1]
1 | – | – | CCCOc1ccc(C(=O)OCCN(CC)CC)cc1NS(=O)(=O)/C=C/c1ccccc1 [Compound 6] | -3.3% | 4.3%
2 | – | – | CC(NCCCCCO)c1cc(OCc2ccccc2)cc(OCc2ccccc2)c1 (stereo not shown) [Compound 8] | -7.6% | 3.6%
3 | No tryptophan fluorescence quenching | – | CC(C)C[C@H](NC(=O)[C@@H]1CCCN1C(=O)[C@H](Cc1cnc[nH]1)NC(=O)[C@@H](NC(=O)[C@H](Cc1ccc(O)cc1)NC(=O)[C@@H](NC(=O)[C@@H](N)CCCNC(=N)N)C(C)C)C(C)C)C(=O)O [Compound 100207] (H-RVYVHPL-OH) | – | –
4 | No tryptophan fluorescence quenching | – | CC(C)=CCC/C(C)=C/CNC(=O)CNC(c1ccc[nH]1)C(F)(F)F (stereo not shown) [Compound 184612] | – | –
5 | – | – | CCC(C)(C)c1ccc(OCCCCNC(=O)c2cc(Oc3ccc([N+](=O)[O-])cc3)c3ccccc3c2O)c(C(C)(C)CC)c1 [Compound 5] | 3.8% | 39.8%
6 | – | approximately 3 fold | Nc1ncnc2c1ncn2[C@H]1C[C@H](O)[C@@H](COP(=O)(O)OP(=O)(O)OP(=O)(O)O)O1 [dATP, deoxyadenosine 5′-triphosphate] | – | –
7 | – | – | CCCCCCCCCCCCCCNC(=O)[C@@H](N)CCN [Compound 3] | 7.2% | 69%
8 | – | – | CCOC(=O)C(NC(=O)CN[C@H]1CCCc2sccc21)C(=O)OCC [Compound 2] | -19.9% | 53.1%
9 | – | – | OC(COc1ccc(OCC(O)CN2CCN(C3c4ccccc4-c4ccccc43)CC2)cc1)CN1CCN(C2c3ccccc3-c3ccccc32)CC1 (stereo not shown) [Compound 1] | -39.6% | 88%
10 | – | – | CCCCCCCCCCCCCCCC(=O)N[C@@H](CCCCN)C(=O)N[C@@H](CCCCN)C(=O)OC [Compound 10] | -21.9% | -8.9%
11 | – | – | CCOC(=O)C[C@@H](CC(=O)NCCN[C@H](C)c1ccc(O)c(C(=O)OC)c1)OC(C)=O [Compound 9] | 9.8% | 9.6%
